{"source": "paper PMC12396409", "about": "“Screening and hit evaluation of a microbial metabolite library against the pathogenic Plasmodium falciparum and Toxoplasma gondii parasites” (International Journal for Parasitology: Drugs and Drug …, 2025)", "key": {"[1]": {"test_system": "T. gondii RH strain (RH-Tub-eYFP) tachyzoites", "assay": "microbe, parasite or virus in culture", "type": "cell-based, Toxoplasma gondii", "settings": "72 h; for percent parasite growth at 2 µg/mL: Toxoplasma gondii"}, "[2]": {"test_system": "P. falciparum 3D7 parasites", "assay": "P. falciparum growth inhibition assay, 2-cycle (120 h treatment), delayed-death screen and dose-response", "type": "cell-based, Plasmodium falciparum"}, "[3]": {"test_system": "P. falciparum 3D7 parasites", "assay": "P. falciparum growth inhibition assay, 1-cycle (72 h treatment), SYBR DNA staining (library screen at 2 μg/mL and dose-response)", "type": "cell-based, Plasmodium falciparum"}, "[4]": {"settings": "T. gondii, screen at 2 μg/mL, replicate 1, read-out: Tg_72h_%Growth_Rep1"}, "[5]": {"settings": "T. gondii, screen at 2 μg/mL, replicate 2, read-out: Tg_72h_%Growth_Rep2"}, "[6]": {"settings": "T. gondii, 2 μg/mL, values are growth (% of control)"}, "[7]": {"settings": "T. gondii, parasite screen at 2 μg/mL, % growth, replicate 1"}, "[8]": {"settings": "T. gondii, parasite screen at 2 μg/mL, % growth, replicate 2"}, "[9]": {"settings": "P. falciparum 3D7, 120 h, parasite screen at 2 μg/mL, % growth, replicate 1"}, "[10]": {"settings": "P. falciparum 3D7, 120 h, parasite screen at 2 μg/mL, % growth, replicate 2"}, "[11]": {"settings": "P. falciparum 3D7, 72 h, parasite screen at 2 μg/mL, % growth, replicate 1"}, "[12]": {"settings": "P. falciparum 3D7, 72 h, parasite screen at 2 μg/mL, % growth, replicate 2"}}, "note": "Where two headings read alike, the source gives them in different places."}
{"smiles": "COc1cc(O)c2c(c1C)C(C)C(O)(CO)OC2=O", "note": "(stereo not drawn) [Banksialactone A]", "values": [{"measurement": "Tg_72h_%Growth_Rep1", "setting": "[1]; library screen at 2 μg/mL, % growth, replicate 1", "result": 101.56, "unit": "%"}, {"measurement": "Tg_72h_%Growth_Rep2", "setting": "[1]; library screen at 2 μg/mL, % growth, replicate 2", "result": 97.07, "unit": "%"}, {"measurement": "Pf_120h_%Growth_Rep1", "setting": "[2]; library screen at 2 μg/mL, 120 h, % growth, replicate 1", "result": 148.50, "unit": "%"}, {"measurement": "Pf_120h_%Growth_Rep2", "setting": "[2]; library screen at 2 μg/mL, 120 h, % growth, replicate 2", "result": 82.39, "unit": "%"}, {"measurement": "Pf_72h_%Growth_Rep1", "setting": "[3]; library screen at 2 μg/mL, 72 h, % growth, replicate 1", "result": 70.20, "unit": "%"}, {"measurement": "Pf_72h_%Growth_Rep2", "setting": "[3]; library screen at 2 μg/mL, 72 h, % growth, replicate 2", "result": 86.53, "unit": "%"}]}
{"smiles": "COC(=O)c1cc(O)cc(OC)c1C(=O)c1c(O)cc(C)cc1O", "note": "[Sulochrin]", "values": [{"measurement": "percent parasite growth at 2 µg/mL", "setting": "[1]; T. gondii, parasite screen 2 μg/mL, % growth, replicate 1, read-out: Tg_72h_%Growth_Rep1", "result": 153, "unit": "%"}, {"measurement": "percent parasite growth at 2 µg/mL", "setting": "[1]; T. gondii, parasite screen 2 μg/mL, % growth, replicate 2, read-out: Tg_72h_%Growth_Rep2", "result": 100, "unit": "%"}, {"measurement": "activity at 2 µg/mL", "setting": "[2]; Plasmodium falciparum, 3D7, P. falciparum, 120 h, parasite screen 2 μg/mL, % growth, replicate 1, read-out: Pf_120h_%Growth_Rep1", "result": 93.2, "unit": "%"}, {"measurement": "activity at 2 µg/mL", "setting": "[2]; Plasmodium falciparum, 3D7, P. falciparum, 120 h, parasite screen 2 μg/mL, % growth, replicate 2, read-out: Pf_120h_%Growth_Rep2", "result": 96.4, "unit": "%"}, {"measurement": "activity at 2 µg/mL", "setting": "[3]; Plasmodium falciparum, 3D7, P. falciparum, 72 h, parasite screen 2 μg/mL, % growth, replicate 1, read-out: Pf_72h_%Growth_Rep1", "result": 88.9, "unit": "%"}, {"measurement": "activity at 2 µg/mL", "setting": "[3]; Plasmodium falciparum, 3D7, P. falciparum, 72 h, parasite screen 2 μg/mL, % growth, replicate 2, read-out: Pf_72h_%Growth_Rep2", "result": 90.8, "unit": "%"}]}
{"smiles": "CCC(C)CCCCCCC(=O)N[C@H]1[C@H](Oc2c3cc4cc2Oc2ccc(cc2Cl)[C@@H](O[C@@H]2O[C@H](CO)[C@@H](O)[C@H](O)[C@H]2NC(C)=O)[C@@H]2NC(=O)[C@H](NC(=O)[C@@H]4NC(=O)[C@H]4NC(=O)[C@@H](Cc5ccc(c(Cl)c5)O3)NC(=O)[C@H](N)c3ccc(O)c(c3)Oc3cc(O)cc4c3)c3ccc(O)c(c3)-c3c(O[C@H]4O[C@H](CO)[C@@H](O)[C@H](O)[C@@H]4O)cc(O)cc3[C@@H](C(=O)O)NC2=O)O[C@H](CO)[C@@H](O)[C@@H]1O", "note": "(stereo partly drawn) [Teicoplanin A2-4]", "values": [{"measurement": "Tg_72h_%Growth_Rep1", "setting": "[1]; T. gondii, screen at 2 μg/mL, replicate 1", "result": 112.03, "unit": "%"}, {"measurement": "Tg_72h_%Growth_Rep2", "setting": "[1]; T. gondii, screen at 2 μg/mL, replicate 2", "result": 79.02, "unit": "%"}, {"measurement": "Pf_120h_%Growth_Rep1", "setting": "[2]; P. falciparum, 120 h, screen at 2 μg/mL, replicate 1", "result": 64.36, "unit": "%"}, {"measurement": "Pf_120h_%Growth_Rep2", "setting": "[2]; P. falciparum, 120 h, screen at 2 μg/mL, replicate 2", "result": 53.42, "unit": "%"}, {"measurement": "Pf_72h_%Growth_Rep1", "setting": "[3]; P. falciparum, 72 h, screen at 2 μg/mL, replicate 1", "result": 81.32, "unit": "%"}, {"measurement": "Pf_72h_%Growth_Rep2", "setting": "[3]; P. falciparum, 72 h, screen at 2 μg/mL, replicate 2", "result": 78.26, "unit": "%"}]}
{"smiles": "O=c1[nH]c2ccccc2c(-c2ccccc2)c1O", "note": "[Viridicatin]", "values": [{"measurement": "percent parasite growth at 2 µg/mL", "setting": "[1]; [4]", "result": 145, "unit": "%"}, {"measurement": "percent parasite growth at 2 µg/mL", "setting": "[1]; [5]", "result": 80.5, "unit": "%"}, {"measurement": "activity at 2 µg/mL", "setting": "[2]; Plasmodium falciparum, 3D7, P. falciparum, 120 h, screen at 2 μg/mL, replicate 1, read-out: Pf_120h_%Growth_Rep1", "result": 106, "unit": "%"}, {"measurement": "activity at 2 µg/mL", "setting": "[2]; Plasmodium falciparum, 3D7, P. falciparum, 120 h, screen at 2 μg/mL, replicate 2, read-out: Pf_120h_%Growth_Rep2", "result": 104, "unit": "%"}, {"measurement": "activity at 2 µg/mL", "setting": "[3]; Plasmodium falciparum, 3D7, P. falciparum, 72 h, screen at 2 μg/mL, replicate 1, read-out: Pf_72h_%Growth_Rep1", "result": 91.8, "unit": "%"}, {"measurement": "activity at 2 µg/mL", "setting": "[3]; Plasmodium falciparum, 3D7, P. falciparum, 72 h, screen at 2 μg/mL, replicate 2, read-out: Pf_72h_%Growth_Rep2", "result": 125, "unit": "%"}]}
{"smiles": "CO[C@@H]1[C@@H](O[C@@H]2O[C@H](C)[C@@H](O[C@H]3C[C@@](C)(O)[C@@H](OC(=O)CC(C)C)[C@H](C)O3)[C@H](N(C)C)[C@H]2O)[C@@H](CC=O)C[C@@H](C)[C@@H](O)/C=C/C=C/C[C@@H](C)OC(=O)C[C@H]1OC(C)=O", "note": "[Josamycin (Leucomycin A3), reference compound]", "values": [{"measurement": "Mean", "setting": "[1]; T. gondii, 2 μg/mL, mean of both replicates, growth (% of control)", "result": 20.93}, {"measurement": "Replicate 1", "setting": "[1]; [6]", "result": 18.33}, {"measurement": "Replicate 2", "setting": "[1]; [6]", "result": 23.52}, {"measurement": "3) Fold change (72 h/120 h)", "setting": "[2]", "result": 5.3}, {"measurement": "activity at 2 µg/mL", "setting": "[2]; Plasmodium falciparum, 3D7, 120 h, P. falciparum, 2 μg/mL, 120 h; read-out: 2) Growth (%) at 120 h", "result": 10.1, "unit": "%"}, {"measurement": "activity at 2 µg/mL", "setting": "[3]; Plasmodium falciparum, 3D7, 72 h, P. falciparum, 2 μg/mL, 72 h; read-out: 1) Growth (%) at 72 h", "result": 53.5, "unit": "%"}]}
{"smiles": "COc1c(-c2ccccc2)c2ccccc2[nH]c1=O", "note": "[BIA-M1149]", "values": [{"measurement": "Tg_72h_%Growth_Rep1", "setting": "[1]; [7]", "result": 136.04, "unit": "%"}, {"measurement": "Tg_72h_%Growth_Rep2", "setting": "[1]; [8]", "result": 92.92, "unit": "%"}, {"measurement": "Pf_120h_%Growth_Rep1", "setting": "[2]; [9]", "result": 106.21, "unit": "%"}, {"measurement": "Pf_120h_%Growth_Rep2", "setting": "[2]; [10]", "result": 123.66, "unit": "%"}, {"measurement": "Pf_72h_%Growth_Rep1", "setting": "[3]; [11]", "result": 89.32, "unit": "%"}, {"measurement": "Pf_72h_%Growth_Rep2", "setting": "[3]; [12]", "result": 119.11, "unit": "%"}]}
{"smiles": "C/C1=C\\[C@@H](C)C/C=C/[C@H]2[C@@H]3O[C@]3(C)[C@@H](C)[C@H]3[C@H](Cc4c[nH]c5ccccc45)NC(=O)[C@]32C(=O)/C=C/C(=O)[C@@H]1O", "note": "[Chaetoglobosin A]", "values": [{"measurement": "percent parasite growth at 2 µg/mL", "setting": "[1]; [4]", "result": 51.1, "unit": "%"}, {"measurement": "percent parasite growth at 2 µg/mL", "setting": "[1]; [5]", "result": 65.4, "unit": "%"}, {"measurement": "activity at 2 µg/mL", "setting": "[2]; Plasmodium falciparum, 3D7, 120 h, P. falciparum, 120 h, screen at 2 μg/mL, replicate 1, read-out: Pf_120h_%Growth_Rep1", "result": 17.4, "unit": "%"}, {"measurement": "activity at 2 µg/mL", "setting": "[2]; Plasmodium falciparum, 3D7, 120 h, P. falciparum, 120 h, screen at 2 μg/mL, replicate 2, read-out: Pf_120h_%Growth_Rep2", "result": 22.2, "unit": "%"}, {"measurement": "activity at 2 µg/mL", "setting": "[3]; Plasmodium falciparum, 3D7, 72 h, P. falciparum, 72 h, screen at 2 μg/mL, replicate 1, read-out: Pf_72h_%Growth_Rep1", "result": 10.6, "unit": "%"}, {"measurement": "activity at 2 µg/mL", "setting": "[3]; Plasmodium falciparum, 3D7, 72 h, P. falciparum, 72 h, screen at 2 μg/mL, replicate 2, read-out: Pf_72h_%Growth_Rep2", "result": 0.38, "unit": "%"}]}
{"smiles": "CO[C@@H]1[C@@H](OC(N)=O)[C@@H](O)[C@H](Oc2ccc3c(O)c(NC(=O)c4ccc(O)c(CC=C(C)C)c4)c(=O)oc3c2C)OC1(C)C", "note": "[BIA-N1306]", "values": [{"measurement": "Tg_72h_%Growth_Rep1", "setting": "[1]; [7]", "result": 9.17, "unit": "%"}, {"measurement": "Tg_72h_%Growth_Rep2", "setting": "[1]; [8]", "result": 93.65, "unit": "%"}, {"measurement": "Pf_120h_%Growth_Rep1", "setting": "[2]; [9]", "result": 15.07, "unit": "%"}, {"measurement": "Pf_120h_%Growth_Rep2", "setting": "[2]; [10]", "result": 13.28, "unit": "%"}, {"measurement": "Pf_72h_%Growth_Rep1", "setting": "[3]; [11]", "result": 77.54, "unit": "%"}, {"measurement": "Pf_72h_%Growth_Rep2", "setting": "[3]; [12]", "result": 85.29, "unit": "%"}]}
